Here are results for 19 compounds from patent US20260125346A1, “Isoquinolinone Derivatives and 4H-Quinolizinone Derivatives and Pharmaceutical Compositions Thereof for the Treatment of Disease” (BeOne Medicines I GmbH, priority 2023, published 2026).

Test [1] deals with PI3Kα (p110[H1047R]/p85) kinase (Homo sapiens, UniProt P42336, H1047R). The test can be described thus: PI3Kα (p110[H1047R]/p85) kinase ADP-Glo Assay. In kind it is biochemical. The conditions noted are these: 25 uM ATP; for selectivity: WT/H1047R: ADP-Glo Assay IC50 ratio. The method in brief: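 ADP-Glo luminescence tracked ADP formed by the mutant p110α(H1047R)/p85 complex during a 120 min room-temperature reaction with 25 µM ATP and 5.35 µg/ml PI(4,5)P2:PS lipid substrate, started after 30 min enzyme–compound–substrate pre-incubation (compound […], 50 mM HEPES pH 7.5). IC50 via four-parameter logistic equation.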
Sequence of PI3Kα (p110[H1047R]/p85) kinase (P42336 whole entry H1047R): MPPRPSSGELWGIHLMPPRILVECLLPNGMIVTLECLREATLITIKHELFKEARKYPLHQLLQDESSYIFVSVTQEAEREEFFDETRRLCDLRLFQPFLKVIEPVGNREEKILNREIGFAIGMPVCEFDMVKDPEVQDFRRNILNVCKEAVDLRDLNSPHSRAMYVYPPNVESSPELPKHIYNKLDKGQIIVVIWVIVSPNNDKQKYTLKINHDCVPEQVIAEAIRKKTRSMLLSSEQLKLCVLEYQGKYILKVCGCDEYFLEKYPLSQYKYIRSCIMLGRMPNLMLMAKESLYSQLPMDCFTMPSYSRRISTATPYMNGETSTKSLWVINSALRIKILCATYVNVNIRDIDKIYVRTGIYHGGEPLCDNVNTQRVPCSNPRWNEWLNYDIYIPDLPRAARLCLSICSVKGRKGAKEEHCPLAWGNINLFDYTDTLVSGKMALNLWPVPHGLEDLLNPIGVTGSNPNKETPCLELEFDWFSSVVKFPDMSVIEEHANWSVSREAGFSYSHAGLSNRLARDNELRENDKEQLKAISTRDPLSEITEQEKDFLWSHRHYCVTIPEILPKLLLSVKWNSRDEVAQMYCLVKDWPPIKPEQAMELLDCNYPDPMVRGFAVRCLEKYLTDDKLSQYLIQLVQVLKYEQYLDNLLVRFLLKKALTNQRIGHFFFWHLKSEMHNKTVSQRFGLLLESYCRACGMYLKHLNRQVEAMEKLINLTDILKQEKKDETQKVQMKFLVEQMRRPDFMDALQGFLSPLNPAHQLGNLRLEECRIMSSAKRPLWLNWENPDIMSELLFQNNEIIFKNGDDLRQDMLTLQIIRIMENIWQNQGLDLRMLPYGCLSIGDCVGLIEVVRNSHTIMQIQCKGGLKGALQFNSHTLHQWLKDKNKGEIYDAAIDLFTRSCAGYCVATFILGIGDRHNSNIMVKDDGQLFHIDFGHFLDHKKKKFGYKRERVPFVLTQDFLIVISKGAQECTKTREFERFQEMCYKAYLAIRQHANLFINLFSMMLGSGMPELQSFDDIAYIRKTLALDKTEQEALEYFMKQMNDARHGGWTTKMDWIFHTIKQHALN
Sequence of PI3Kα (p110[H1047R]/p85) kinase (P27986 whole entry partner): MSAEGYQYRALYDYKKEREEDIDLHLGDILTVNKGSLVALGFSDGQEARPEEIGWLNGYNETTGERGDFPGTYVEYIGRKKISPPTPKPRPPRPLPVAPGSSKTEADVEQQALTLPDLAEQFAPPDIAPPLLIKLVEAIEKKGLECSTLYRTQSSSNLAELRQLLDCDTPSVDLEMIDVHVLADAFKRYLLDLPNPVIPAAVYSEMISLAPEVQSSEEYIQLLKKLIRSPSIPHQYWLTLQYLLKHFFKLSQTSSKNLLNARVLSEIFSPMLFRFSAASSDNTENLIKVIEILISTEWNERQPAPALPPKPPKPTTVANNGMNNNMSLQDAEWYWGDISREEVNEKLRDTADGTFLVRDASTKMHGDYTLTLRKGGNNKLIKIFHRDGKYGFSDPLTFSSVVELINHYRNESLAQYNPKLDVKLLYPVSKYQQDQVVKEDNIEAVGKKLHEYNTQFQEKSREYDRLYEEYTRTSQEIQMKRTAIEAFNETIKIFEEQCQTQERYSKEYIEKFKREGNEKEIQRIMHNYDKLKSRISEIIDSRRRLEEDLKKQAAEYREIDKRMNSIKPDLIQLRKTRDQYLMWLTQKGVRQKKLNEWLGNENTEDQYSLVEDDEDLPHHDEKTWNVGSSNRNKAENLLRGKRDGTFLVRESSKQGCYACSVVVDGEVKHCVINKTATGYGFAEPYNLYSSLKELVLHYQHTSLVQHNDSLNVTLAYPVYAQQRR

Test [2] relates to PI3Kα H1047R mutated cell line T-47D. Description: Phospho-AKT (Ser473) Inhibition Assay (HTRF), T-47D. The conditions noted are these: for IC50: Homo sapiens, T47D, T-47D, 1 hour treatment, read-out: p-AKT Inhibition assay (S473) IC50 T-47D; for Selectivity: SK-BR-3/T-47D (p-AKT): p-AKT (S473) IC50 ratio. In kind it is cell-based. The method in brief: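 Cells seeded overnight in insulin-supplemented MEM, then treated 1 h with 11-point 1:3 compound dilutions (10 μM to 0.1 nM final, 0.1% DMSO). Lysates assayed for phospho-AKT Ser473 by HTRF; IC50 from 4-parameter logistic fit, normalised to DMSO (max) and 10 μM GDC0077 (min).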
For orientation: Time-resolved FRET reads energy transfer from a long-lived donor to a nearby acceptor.

The IC50 is the concentration at which inhibition is half-maximal. Regarding `Cc1cc(C(C)Nc2ccccc2C(=O)O)c2cc(-c3ccc(C4(O)CCOCC4)cc3)n(C)c(=O)c2c1` (stereo not shown) [Example 73, 2-((1-(3-(4-(4-hydroxytetrahydro-2H-pyran-4-yl)phenyl)-2,7-dimethyl-1-oxo-1,2-dihydroisoquinolin-5-yl)ethyl)amino)benzoic acid], in test [1], the IC50 was 1030 nM and the “selectivity: WT/H1047R” value was 25.4. Besides, in test [2], the IC50 came to 924 nM and the “Selectivity: SK-BR-3/T-47D (p-AKT)” value was over 10.82.
In the case of `COC1(c2ccc(-c3cc4c(C(C)Nc5ccccc5C(=O)O)cc(C)cc4c(=O)n3C)cc2)CCOCC1` (stereo not shown) [Example 74, 2-((1-(3-(4-(4-methoxytetrahydro-2H-pyran-4-yl)phenyl)-2,7-dimethyl-1-oxo-1,2-dihydroisoquinolin-5-yl)ethyl)amino)benzoic acid], in test [1], the IC50 came to 729 nM and the “selectivity: WT/H1047R” value worked out at 18.0. Further, in test [2], the IC50 amounted to 307 nM and the “Selectivity: SK-BR-3/T-47D (p-AKT)” value amounted to 14.3.
For the compound `Cc1cc(C(C)Nc2ccccc2C(=O)O)c2cc(-c3ccc4c(c3)C(=O)N(C)C4)n(C)c(=O)c2c1` (stereo not shown) [Example 75, 2-((1-(2,7-dimethyl-3-(2-methyl-3-oxoisoindolin-5-yl)-1-oxo-1,2-dihydroisoquinolin-5-yl)ethyl)amino)benzoic acid], in test [1], the IC50 came out at 974 nM and the “selectivity: WT/H1047R” value amounted to 32.3. Also, in test [2], the IC50 was 547 nM and the “Selectivity: SK-BR-3/T-47D (p-AKT)” value is recorded as over 18.29.
Consider `Cc1cc(C(C)Nc2ccccc2C(=O)O)c2cc(C3=CCN(c4ccccc4)C3)n(C)c(=O)c2c1` (stereo not shown) [Example 76, 2-((1-(2,7-dimethyl-1-oxo-3-(1-phenyl-2,5-dihydro-1H-pyrrol-3-yl)-1,2-dihydroisoquinolin-5-yl)ethyl)amino)benzoic acid], for which, in test [1], inhibition was half-maximal at 516 nM (IC50) and the “selectivity: WT/H1047R” value is given as 22.8. Moreover, in test [2], the IC50 worked out at 123 nM and the “Selectivity: SK-BR-3/T-47D (p-AKT)” value is reported as 43.5.
As for `Cc1cc(C(C)Nc2ccccc2C(=O)O)c2cc(-c3ccn(-c4ccccc4)c3)n(C)c(=O)c2c1` (stereo not shown) [Example 77, 2-((1-(2,7-dimethyl-1-oxo-3-(1-phenyl-1H-pyrrol-3-yl)-1,2-dihydroisoquinolin-5-yl)ethyl)amino)benzoic acid], in test [1], the concentration for half-maximal inhibition (IC50) was determined as 325 nM and the “selectivity: WT/H1047R” value amounted to 21.4. Besides, in test [2], the IC50 came out at 84.3 nM and the “Selectivity: SK-BR-3/T-47D (p-AKT)” value is 24.2.
Consider `Cc1cc(C(C)Nc2ccccc2C(=O)O)c2cc(-c3ccc(CN4CCOCC4)nc3)n(C)c(=O)c2c1` (stereo not shown) [Example 78, 2-((1-(2,7-dimethyl-3-(6-(morpholinomethyl)pyridin-3-yl)-1-oxo-1,2-dihydroisoquinolin-5-yl)ethyl)amino)benzoic acid], for which, in test [1], it took 2210 nM to reach half-maximal inhibition (IC50) and the “selectivity: WT/H1047R” value came to 29.7. Further, in test [2], the IC50 turned out to be 1950 nM and the “Selectivity: SK-BR-3/T-47D (p-AKT)” value is over 5.12.
As for `Cc1cc(C(C)Nc2ccccc2C(=O)O)c2cc(-c3ccc(P(C)(C)=O)cc3)n(C)c(=O)c2c1` (stereo not shown) [Example 79, 2-((1-(3-(4-(dimethylphosphoryl)phenyl)-2,7-dimethyl-1-oxo-1,2-dihydroisoquinolin-5-yl)ethyl)amino)benzoic acid], in test [1], the IC50 was found to be 2420 nM and the “selectivity: WT/H1047R” value is reported as 24.4. In addition, in test [2], the IC50 was over 10000 nM.
As to `Cc1cc(C(C)Nc2ccccc2C(=O)O)c2cc(C#Cc3cnn(C)c3)n(C)c(=O)c2c1` (stereo not shown) [Example 80, 2-((1-(2,7-dimethyl-3-((1-methyl-1H-pyrazol-4-yl)ethynyl)-1-oxo-1,2-dihydroisoquinolin-5-yl)ethyl)amino)benzoic acid], in test [1], the IC50 was determined as 304 nM and the “selectivity: WT/H1047R” value stood at 10.8. Also, in test [2], the IC50 was determined as 69.8 nM and the “Selectivity: SK-BR-3/T-47D (p-AKT)” value came to 44.1.
`CCn1c(-c2ccc(F)cc2)cc2c(C(C)Nc3ccc(Cl)nc3C(=O)O)cc(C)cc2c1=O` (stereo not shown) [Example 81, 6-chloro-3-((1-(2-ethyl-3-(4-fluorophenyl)-7-methyl-1-oxo-1,2-dihydroisoquinolin-5-yl)ethyl)amino)picolinic acid]: in test [1], the IC50 came to 215 nM and the “selectivity: WT/H1047R” value amounted to 17.6. Also, in test [2], the IC50 came to 40.9 nM and the “Selectivity: SK-BR-3/T-47D (p-AKT)” value is 45.6.
For `Cc1cc(C(C)Nc2ccccc2S(C)(=O)=O)c2cc(-c3ccccc3)n(C)c(=O)c2c1` (stereo not shown) [Example 82, 2,7-dimethyl-5-(1-((2-(methylsulfonyl)phenyl)amino)ethyl)-3-phenylisoquinolin-1(2H)-one], in test [1], half-maximal inhibition (IC50) required 549 nM and the “selectivity: WT/H1047R” value is given as 6.0. Besides, in test [2], the IC50 was found to be 155 nM and the “Selectivity: SK-BR-3/T-47D (p-AKT)” value is listed as 13.0.
Regarding `Cc1cc(C(C)Nc2ccccc2C(=O)O)c2cc(-c3ccc(N4CCCC4)cc3)n(C)c(=O)c2c1` (stereo not shown) [Example 84, 2-((1-(2,7-dimethyl-1-oxo-3-(4-(pyrrolidin-1-yl)phenyl)-1,2-dihydroisoquinolin-5-yl)ethyl)amino)benzoic acid], in test [1], the IC50 was determined as 242 nM and the “selectivity: WT/H1047R” value amounted to 60.4. Besides, in test [2], the IC50 turned out to be 60 nM and the “Selectivity: SK-BR-3/T-47D (p-AKT)” value came out at 52.0.
Regarding `Cc1cc(C(C)Nc2ccccc2C(=O)O)c2cc(-c3ccc(C(F)(F)F)nc3)n(C)c(=O)c2c1` (stereo not shown) [Example 86, 2-((1-(2,7-dimethyl-1-oxo-3-(6-(trifluoromethyl)pyridin-3-yl)-1,2-dihydroisoquinolin-5-yl)ethyl)amino)benzoic acid], in test [1], the 50% inhibitory concentration (IC50) was 575 nM and the “selectivity: WT/H1047R” value was found to be 26.3. Further, in test [2], the IC50 came to 372 nM and the “Selectivity: SK-BR-3/T-47D (p-AKT)” value is on record as over 27.
Consider `Cc1cc(C(C)Nc2ccccc2C(=O)O)c2cc(-c3cnn(CC45CC6C[C@H](C4)C[C@H](C6)C5)c3C)n(C)c(=O)c2c1` (stereo partly drawn) [Example 87, 2-((1-(3-(1-(((3S,5S)-adamantan-1-yl)methyl)-5-methyl-1H-pyrazol-4-yl)-2,7-dimethyl-1-oxo-1,2-dihydroisoquinolin-5-yl)ethyl)amino)benzoic acid], for which, in test [1], half-maximal inhibition (IC50) was put at 1500 nM and the “selectivity: WT/H1047R” value is recorded as 23.5. In addition, in test [2], the IC50 is 432 nM and the “Selectivity: SK-BR-3/T-47D (p-AKT)” value is listed as 6.6.
For the compound `Cc1cc(C(C)Nc2ccccc2C(=O)O)c2cc(C#Cc3ccn(C)n3)n(C)c(=O)c2c1` (stereo not shown) [Example 88, 2-((1-(2,7-dimethyl-3-((1-methyl-1H-pyrazol-3-yl)ethynyl)-1-oxo-1,2-dihydroisoquinolin-5-yl)ethyl)amino)benzoic acid], in test [1], half-maximal inhibition (IC50) was put at 152 nM and the “selectivity: WT/H1047R” value is 11.5. Moreover, in test [2], the IC50 was 68.5 nM and the “Selectivity: SK-BR-3/T-47D (p-AKT)” value came to 28.3.
As for `Cc1cc(C(C)Nc2ccccc2C(=O)O)c2cc(C#CC3(O)CCCC3)n(C)c(=O)c2c1` (stereo not shown) [Example 89, 2-((1-(3-((1-hydroxycyclopentyl)ethynyl)-2,7-dimethyl-1-oxo-1,2-dihydroisoquinolin-5-yl)ethyl)amino)benzoic acid], in test [1], inhibition was half-maximal at 158 nM (IC50) and the “selectivity: WT/H1047R” value is on record as 43.3. For the same compound, in test [2], the IC50 amounted to 184 nM and the “Selectivity: SK-BR-3/T-47D (p-AKT)” value is reported as 37.2.
Consider `Cc1cc(C(C)Nc2ccccc2C(=O)O)c2cc(C#Cc3cnn(-c4ccccc4)c3)n(C)c(=O)c2c1` (stereo not shown) [Example 94, 2-((1-(2,7-dimethyl-1-oxo-3-((1-phenyl-1H-pyrazol-4-yl)ethynyl)-1,2-dihydroisoquinolin-5-yl)ethyl)amino)benzoic acid], for which, in test [1], it took 387 nM to reach half-maximal inhibition (IC50) and the “selectivity: WT/H1047R” value is over 258. In test [2], the IC50 worked out at 3280 nM and the “Selectivity: SK-BR-3/T-47D (p-AKT)” value is listed as over 3.05.
Regarding `Cc1cc(C(C)Nc2ccccc2C(=O)O)c2cc(-c3ccc(F)cc3)n(C3COC3)c(=O)c2c1` (stereo not shown) [Example 95, 2-((1-(3-(4-fluorophenyl)-7-methyl-2-(oxetan-3-yl)-1-oxo-1,2-dihydroisoquinolin-5-yl)ethyl)amino)benzoic acid], in test [1], the IC50 worked out at 91 nM and the “selectivity: WT/H1047R” value was 47.6. In addition, in test [2], the IC50 is 25.6 nM and the “Selectivity: SK-BR-3/T-47D (p-AKT)” value amounted to 52.9.
With `Cc1cc(C(C)Nc2ccccc2C(=O)O)c2cc(-c3ccc(F)cc3)n(C3CCOCC3)c(=O)c2c1` (stereo not shown) [Example 96, 2-((1-(3-(4-fluorophenyl)-7-methyl-1-oxo-2-(tetrahydro-2H-pyran-4-yl)-1,2-dihydroisoquinolin-5-yl)ethyl)amino)benzoic acid], in test [1], the IC50 worked out at 910 nM and the “selectivity: WT/H1047R” value came to 79.1. For the same compound, in test [2], the IC50 was 330 nM and the “Selectivity: SK-BR-3/T-47D (p-AKT)” value was 28.8.
On to `Cc1cc(C(C)Nc2ccncc2C(=O)O)c2cc(-c3ccc(F)cc3)n(C)c(=O)c2c1` (stereo not shown) [Example 97, 4-((1-(3-(4-fluorophenyl)-2,7-dimethyl-1-oxo-1,2-dihydroisoquinolin-5-yl)ethyl)amino)nicotinic acid], for which the figures for the IC50 in test [1] and in test [2] were over 100000 nM and over 10000 nM, respectively.
